The test system of test [1] is ventral prostate and seminal vesicle of immature castrated male rats. Nature of the test: Residual androgenic activity in the immature castrated male rat model. The class given is in vivo. The conditions noted are these: for Seminal Vesicle weight / Ventral Prostate weight: 10 daily administrations; for effect on the growth of male accessory sex organs (residual androgenic activity): in words, gavage (PO), Tables 3 and 4. The text has this: The residual androgenic potential is an important feature to be evaluated for any new progestin, because it is highly predictive of androgenic side-effects in women. One pharmacological model of androgenic activity has been standardized to screen steroids or related compounds in immature castrated male rats, using the hypertrophy of the vental prostate and of the seminal vesicle as the endpoint, following 10 daily administrations (R. I. Dorfman, in Methods in Hormone Research, volume 2, London, Academic Press, 1962: 275-313; A. G. Hilgar and D. J. Hummel, Androgenic and Myogenic Endocrine Bioassay Data, U.S. Department of Health, Education and Welfare, Washington D.C., 1964).

Test [2] concerns uterus of estrogen-primed immature female rabbits (endometrial transformation). The conditions noted are these: in words, known from the literature; cited from earlier work.
Test [3] has as its system human T47-D cell progesterone receptor. Nature of the test: Relative binding affinity to human T47-D cell progesterone receptor ([3H]-ORG 2058 displacement). The conditions noted are these: for IC50: mean ± s.e.m., 2 nM [3H]-ORG 2058, 3 hours at 4° C., T47-D cell PR, read-out: ED50 (concentration inhibiting 50% of the specific binding of [3H]-ORG 2058); for RBA (relative binding affinity): relative to nomegestrol acetate = 100%. The protocol:
(§1) The progestational activity of the compounds according to the present invention can be assessed mainly in two specific experimental models the affinity for the progesterone receptor (PR) in vitro, and the endometrial tranformation of the rabbit uterus in vivo. Human PRs are readily available in high amounts from the T47-D cell line in culture (M. B. Mockus et al., Endocrinology, 1982, 110, 1564-1571). Relative binding affinities (RBA) for the human T47-D cell PR are determined as previously described (J. Botella et al., J. Steroid Biochem. Molec. Biol., 1994, 50, 41-47) using [^3 H]-ORG 2058 as a labelled specific ligand (G. Fleischmann and M. Beato, Biochim. Biophys. Acta, 1978, 540, 500-517) and nomegestrol acetate as a non-radioactive reference progestin. Competitive incubations were performed against 2 nM of [^3 H]-ORG 2058 for 3 hours at 4° C. with […] of non-labelled steroid, chosen between 4 and 256 nM following a 1/2^n dilution scheme. Displacement curves were fitted for each experiment, and the concentration inhibiting 50% of the specific binding of [^3 H]-ORG 2058 was calculated for each curve (IC50).

The test system of test [4] is uterus of estrogen-primed immature female rabbits (endometrial transformation). Briefly: Clauberg-McPhail test by oral administration (gavage), endometrial transformation of the rabbit uterus. In kind it is in vivo. The conditions noted are these: for ED50 (dose for mean McPhail grade equal to 2): mean ± s.e.m., total dose/rabbit/5 days; for Relative activity: relative to nomegestrol acetate = 100%. As to the method:
as §1
One specific pharmacological test has been standardized in vivo for the detection and quantitation of pseudogestagenic activity since the mid-30's: it is based on the property of the uterus of estrogen-primed immature female rabbits to respond to very slight amounts of progestin by a typical endometrial transformation into a densely packed and interlaced epithelial network called "dentelle". The original test schedule, which includes 6 days of estrogen priming (total subcutaneous dose of 30 μg/rabbit of oestradiol benzoate) followed by 5 days of progestational treatment, was designed as early as 1930 by C. Clauberg, Zentr. Gynakol. 1930, 54, 2757-2770. The semi-quantitative scale used to grade the intensity of the microscopical appearance of the dentelle was set up by M. K. McPhail, J. Physiol (London), 1934, 83, 145-156. This overall Clauberg-McPhail procedure has been extensively used to screen steroids for putative progestational activity in vivo and is still part of the basic hormonal profile of any new progestin such as norgestimate (A Phillips et al., Contraception, 1987, 36, 181-192), or desogestrel (J. Van der Vies and J. De Visser, Arzneim. Forsch/Drug Res., 1983, 33, 231-236). The progestational potency is inversely related to the dose needed to induce a half-maximal stimulation of the dentelle, i.e. to record a mean McPhail grade equal to 2. This ED50 is deduced from the dose-responsecurve and expressed in total dose/rabbit/5 days. All compounds were tested only following oral administration by gavage, in suspension in a carboxy-methylcellulose solution.

In test [5] the test system is ventral prostate and seminal vesicle of immature castrated male rats. As to conditions: well-known from the literature (Tausk and de Visser); cited from earlier work.
Where [6] appears, read: Table 4, PO, 20 mg/animal/day, mean ± s.e.m. of 7 or 8 animals, castrated controls 10.4 ± 0.6, both ns.
Setting [7] is: Table 4, PO, 20 mg/animal/day, mean ± s.e.m. of 7 or 8 animals, castrated controls 11.8 ± 0.6, cyproterone acetate p <0.05, Example 4 ns.
Where [8] appears, read: Table 3, PO, 20 mg/animal/day, mean ± s.e.m. of 8 animals, castrated controls 12.0 ± 0.9, medroxyprogesterone acetate p <0.001, Example 1 ns.
[9] abbreviates: Table 3, PO, 20 mg/animal/day, mean ± s.e.m. of 8 animals, castrated controls 12.3 ± 0.7, medroxyprogesterone acetate p <0.01, Example 1 ns.

The structures appear in SMILES notation. Some results are limits rather than exact numbers.

In the case of `CC(=O)O[C@]1(C(C)=O)CC[C@H]2[C@@H]3C=C(Cl)C4=CC(=O)[C@@H]5C[C@@H]5[C@]4(C)[C@H]3CC[C@@]21C` [Cyproterone acetate], the “Seminal Vesicle weight” value in test [1] (setting [6]) was 11.3 ± 0.6 mg. In addition, the “Ventral Prostate weight” value in test [1] (setting [7]) is 15.3 ± 1.3 mg. Moreover, the “effect on the growth of male accessory sex organs (residual androgenic activity)” value (“effect … (residual androgenic activity)” below) in test [1] was “very weak and limited to the ventral prostate, at the border of statistical significance”. Also, the progestational activity result in test [2] was “potent progestational activity”.
Regarding `CC(=O)O[C@]1(C(C)=O)CC[C@H]2[C@@H]3C=C(C)C4=CC(=O)CC[C@@H]4[C@H]3CC[C@@]21C` [Nomegestrol acetate, reference compound], in test [3], the IC50 turned out to be 0.0089 ± 0.002 µM and the “RBA (relative binding affinity)” value is listed as 100%. In test [4], the “ED50 (dose for mean McPhail grade equal to 2)” value (shortened to “ED50”) turned out to be 170 ± 41 μg/rabbit 5 days and the Relative activity is recorded as 100%. Further, the progestational activity result in test [2] is “potent orally active”.
`CC(=O)O[C@]1(C(C)=O)CC[C@H]2[C@@H]3CC(C)(C)C4=CC(=O)CC[C@@H]4[C@H]3CC[C@@]21C` [Example 1, 17α-acetoxy-6,6-dimethyl-3,20-dioxo-19-nor-pregna-4-ene]: in test [3], the IC50 was found to be 0.0278 ± 0.002 µM and the “RBA (relative binding affinity)” value stood at 32%. Besides, the “Ventral Prostate weight” value in test [1] (setting [8]) is 13.0 ± 0.3 mg. Moreover, the “Seminal Vesicle weight” value in test [1] (setting [9]) was found to be 10.4 ± 0.5 mg. Also, the “effect … (residual androgenic activity)” value in test [1] is “totally inactive”. In test [4], the “ED50” value stood at 152 ± 28 μg/rabbit 5 days and the Relative activity worked out at 112%.
`CC(=O)O[C@]1(C(C)=O)CC[C@H]2[C@@H]3C[C@H](C)C4=CC(=O)CC[C@]4(C)[C@H]3CC[C@@]21C` [Medroxyprogesterone acetate]: the “Ventral Prostate weight” value in test [1] (setting [8]) is 29.1 ± 1.4 mg. In addition, the “Seminal Vesicle weight” value in test [1] (setting [9]) is given as 19.9 ± 1.8 mg. In test [1], the “effect … (residual androgenic activity)” value is “caused both organs to more or less double in weight”. For the same compound, the androgenic properties entry in test [5] is “weak androgenic properties”.
`C[C@]12CC[C@H]3[C@@H](CCC4=CC(=O)CC[C@@]43C)[C@@H]1CC[C@@H]2O` [Testosterone]: the “Ventral Prostate weight” value in test [1] (Table 3, SC, 0.05 mg/animal/day, mean ± s.e.m. of 8 animals, castrated controls 12.0 ± 0.9, *** p <0.001) is 90.4 ± 4.4 mg; in test [1] (Table 4, SC, 0.05 mg/animal/day, mean ± s.e.m. of 7 or 8 animals, castrated controls 11.8 ± 0.6, *** p <0.001), 80.9 ± 3.4 mg. Further, the “Seminal Vesicle weight” value in test [1] (Table 3, SC, 0.05 mg/animal/day, mean ± s.e.m. of 8 animals, castrated controls 12.3 ± 0.7, *** p <0.001) turned out to be 90.3 ± 6.7 mg; in test [1] (Table 4, SC, 0.05 mg/animal/day, mean ± s.e.m. of 7 or 8 animals, castrated controls 10.4 ± 0.6, *** p <0.001) it was 79.0 ± 5.3 mg.
In the case of `CC(=O)O[C@]1(C(C)=O)CC[C@H]2[C@@H]3C[C@H](C)C4=CC(=O)[C@@H]5C[C@@H]5[C@@H]4[C@H]3CC[C@@]21C` [Example 4, 17α-acetoxy-1α,2α-methylene-6α-methyl-3,20-dioxo-19-nor-pregna-4-ene], in test [3], the IC50 worked out at 0.0228 ± 0.0017 µM and the “RBA (relative binding affinity)” value worked out at 39%. In addition, the “Seminal Vesicle weight” value in test [1] (setting [6]) was determined as 11.2 ± 0.5 mg. Besides, in test [1] (setting [7]), the “Ventral Prostate weight” value came to 12.1 ± 0.4 mg. Further, the “effect … (residual androgenic activity)” value in test [1] was “totally inactive”. In addition, in test [4], the “ED50” value turned out to be 66 ± 11 μg/rabbit 5 days and the Relative activity was 258%.
`CC(=O)O[C@]1(C(C)=O)CC[C@H]2[C@@H]3C[C@H](C)C4=CC(=O)[C@H]5C[C@H]5[C@@H]4[C@H]3CC[C@@]21C` [Example 5, 17α-acetoxy-1β,2β-methylene-6α-methyl-3,20-dioxo-19-nor-pregna-4-ene]: in test [3], the IC50 worked out at 0.0177 ± 0.0024 µM and the “RBA (relative binding affinity)” value stood at 50%. In test [4], the “ED50” value is listed as more than 750 ± 6.0 μg/rabbit 5 days and the Relative activity is more than 17%.
